Experimental data published in US12180210B2, “Compounds” (INTRA-CELLULAR THERAPIES, INC., priority 2018, dated 2024).
Like-named read-outs stand apart in the source and are kept apart here.

What was measured:
[1] = test system: mice; assay: Forced swim paradigm, acute antidepressant-like activity; type: in vivo
[2] = test system: mice; assay: Tail suspension paradigm, acute antidepressant-like activity; type: in vivo
[3] = test system: mice; assay: Elevated plus maze, acute anxiolytic activity; conditions: compound 1, 2, and 5 mg/kg, i.p., diazepam 0.5 mg/kg
[4] = Pharmacokinetic study in mice, plasma and brain availability; conditions: single oral dose 10 mg/kg PO
Protocol: (§1) Mice are given a single oral dose of the compound to be tested (10 mg/kg, PO) and plasma and brain availability are measured (0.25-4h) using HPLC and LC-MS using methods analogous to those described in Zhao et al., J. Chromatogr.

[5] = test system: PDE1; assay: PDE isoform inhibition, IMAP procedure; type: biochemical
[6] = test system: PDE3; assay: PDE isoform inhibition, IMAP procedure; type: biochemical
[7] = test system: T1, PDE4; assay: PDE isoform inhibition, IMAP procedure; type: biochemical
T1 construct: PDE4 IC50

[8] = biological target: PDE5 (Homo sapiens, UniProt O76074); assay: PDE isoform inhibition, IMAP procedure; type: biochemical
[9] = test system: PDE6; assay: PDE isoform inhibition, IMAP procedure; type: biochemical
[10] = test system: HT-22 (hippocampal-like) cells; assay: cGMP levels in HT-22 cells stimulated by NMDA; type: cell-based
[11] = test system: HT22 cells; assay: cAMP levels in HT22 cells stimulated by isoproterenol; type: cell-based
[12] = test system: VASP (vasodilator stimulated phosphoprotein); assay: Phosphorylation of effector proteins under cGMP/cAMP control: VASP; type: cell-based
[13] = test system: CREB (cAMP response element-binding protein); assay: Phosphorylation of effector proteins under cGMP/cAMP control: CREB; type: cell-based
[14] = test system: BDNF; assay: Expression of the growth factor BDNF; type: cell-based
[15] = test system: cGMP and cAMP levels in hippocampus; assay: In vivo levels of cGMP and cAMP in mouse brain (hippocampus); conditions: mice killed 30 min after injection
Protocol: For these studies, mice were killed 30 min after injection of each drug/dose and hippocampus isolated and used for measurement of cyclic nucleotides.

[16] = test system: mice; conditions: mouse, in vivo
[17] = in vivo; conditions: mouse, po, 10 mg/kg
Protocol: as §1

[18] = test system: mice; assay: Spontaneous locomotor activity; conditions: same dose levels that increased anxiolytic activity
[19] = test system: mice; assay: Hole board test, acute anxiolytic activity; conditions: compound 1, 2, and 5 mg/kg, i.p., diazepam 0.5 mg/kg

In the case of COc1ccc(Cc2nn3c([C@@H](CCCc4ccccc4)[C@@H](C)O)nc(C)c3c(=O)[nH]2)cc1OC [BAY-7550], the “Immobility time / antidepressant-like activity, forced swim” value [1] is reported as “generally smaller effects that did not reach significance in all assays”, the “Immobility time / antidepressant-like activity, tail suspension” value [2] is reported as “generally smaller effects that did not reach significance in all assays” and the “Open arm entrances, elevated plus maze” value [3] is reported as “small trends for these assays that did not achieve statistical significance”. The “Open arm entrances, elevated plus maze” value ([3]; listed as commercial PDE2 inhibitor) was “no statically significant effect” and the Tmax [4] was 0.25.

In the case of Cc1ccc(-c2c(-c3nc(C)n4ccnc(N5CCC5)c34)cnn2C)cc1 [Compound 1, 8-(azetidin-1-yl)-3-methyl-1-(1-methyl-5-(p-tolyl)-1H-pyrazol-4-yl)imidazo[1,5-a]pyrazine], the IC50 [5] is reported as 8.3 µM, the IC50 [6] is reported as over 100 µM and the IC50 [7] is reported as 24.8 µM. The IC50 [8] was 15.1 µM, the IC50 [9] was over 100 µM and the “Optimal dose for stimulation of cGMP levels” value [10] was 10 nM. The cGMP levels ([10]; NMDA (20 μM), 15 min incubation) was “dose-dependent increase”, the “Optimal dose for stimulation of cAMP levels” value [11] was 10 nM and the cAMP levels ([11]; isoproterenol (ISO, 10 nM)) was “dose-dependent increase”. For the same compound, the “Phosphorylation of VASP” value [12] was “concentration-dependent increase”, the “Phosphorylation of CREB” value [13] was “concentration-dependent increase” and the “Expression of BDNF” value [14] was “increased the expression”. For the same compound, the “Immobility time / antidepressant-like activity, forced swim” value [1] was “significantly reduced immobility time”, the “Immobility time / antidepressant-like activity, tail suspension” value [2] was “significantly reduced immobility time” and the “cAMP levels in hippocampus” value [15] was “significant increases”. For the same compound, the “cGMP levels in hippocampus” value [15] was “significant increases”, the Spontaneous locomotor activity [16] was “did not significantly affect spontaneous locomotor activity” and the AUC(0-t) [17] was 119 ng·h/mL. For the same compound, the Cmax [17] was 268 ng/mL, the Tmax [17] was 30 min and the half-life [17] was 48 min. The “Open arm entrances, elevated plus maze” value [3] was “significantly increased open arm entrances”.

In the case of CNCCCN1c2ccccc2CCc2ccccc21 [Desipramine, desipramine], the “Immobility time / antidepressant-like activity, forced swim” value [1] is reported as “induced signs of antidepressant-like activity” and the “Immobility time / antidepressant-like activity, tail suspension” value [2] is reported as “induced signs of antidepressant-like activity”.

For CN1C(=O)CN=C(c2ccccc2)c2cc(Cl)ccc21 [Diazepam, diazepam], the Spontaneous locomotor activity [18] was “did not significantly affect spontaneous locomotor activity”, the “Exploration, hole board test” value [19] was “increased explorations” and the “Open arm entrances, elevated plus maze” value [3] was “increased entrance into open arms”.
